This note sets out measurements from patent publication US8865756B2, “Inhibitors of HCV NS5A” (Presidio Pharmaceuticals, Inc., priority 2008, dated 2014).

The test has as its system HCV 1b_Huh-Luc/Neo-ET cell line persistently expressing a bicistronic genotype 1b replicon in Huh 7 cells. Nature of the test: HCV replicon assay (luciferase readout). In kind it is cell-based. Conditions: Hepatitis C virus, Huh-7, 72 h, read-out: Inhibition of HCV genotype 1b. Put shortly: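 EC50, determined repeatedly, comes from a four-parameter logistic fit of luciferase signal as percent of untreated control. Readout follows 72 h compound exposure, in triplicate, of the HCV 1b_Huh-Luc/Neo-ET replicon line.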
A general note: In antiviral work, replicon cells carry a viral genome segment that copies itself.
As for `COC(=O)N[C@@H](C(=O)N1CCC[C@H]1c1ncc(-c2ccc(C#Cc3ccc(-c4cnc([C@@H]5CCCN5C(=O)[C@H](NC(=O)[C@H]5CCCN5)c5ccccc5)[nH]4)cc3)cc2)[nH]1)c1ccccc1` [Compound 207], the EC50 is less than 1 nM.

Consider `O=C(N[C@@H](C(=O)N1CCC[C@H]1c1ncc(-c2ccc(C#Cc3ccc(-c4cnc([C@@H]5CCCN5C(=O)[C@@H](c5ccccc5)N5CCCCC5)[nH]4)cc3)cc2)[nH]1)c1ccccc1)C1CC1` [Compound 208], for which the EC50 was less than 1 nM.

As to `O=C(N[C@@H](C(=O)N1CCC[C@H]1c1ncc(-c2ccc(C#Cc3ccc(-c4cnc([C@@H]5CCCN5C(=O)[C@@H](c5ccccc5)N5CCCCC5)[nH]4)cc3)cc2)[nH]1)c1ccccc1)N1CCOCC1` [Compound 209], the EC50 is less than 1 nM.

`CC(C)(C)OC(=O)N[C@@H](C(=O)N1CCC[C@H]1c1cc(-c2ccc(C#Cc3ccc(-c4cnc([C@@H]5CCCN5C(=O)[C@H](NC(=O)OC(C)(C)C)c5ccccc5)[nH]4)cc3)cc2)n[nH]1)c1ccccc1` [Compound 210]: the EC50 is less than 1 nM.

In the case of `COC(=O)N[C@@H](C(=O)N1CCC[C@H]1CNC(=O)c1ccc(C#Cc2ccc(-c3cnc([C@@H]4CCCN4C(=O)[C@H](NC(=O)OC)c4ccccc4)[nH]3)cc2)cc1)c1ccccc1` [Compound 211], the EC50 is less than 1 nM.

For the compound `O=C(N[C@@H](C(=O)N1CCC[C@H]1c1cc(-c2ccc(C#Cc3ccc(-c4cnc([C@@H]5CCCN5C(=O)[C@H](NC(=O)C5CC5)c5ccccc5)[nH]4)cc3)cc2)n[nH]1)c1ccccc1)C1CC1` [Compound 212], the EC50 is less than 1 nM.

Take `CN1CCN(C(=O)N[C@@H](C(=O)N2CCC[C@H]2c2cc(-c3ccc(C#Cc4ccc(-c5cnc([C@@H]6CCCN6C(=O)[C@H](NC(=O)N6CCN(C)CC6)c6ccccc6)[nH]5)cc4)cc3)n[nH]2)c2ccccc2)CC1` [Compound 213]: the EC50 is less than 1 nM.

As for `O=C(N[C@@H](C(=O)N1CCC[C@H]1c1cc(-c2ccc(C#Cc3ccc(-c4cnc([C@@H]5CCCN5C(=O)[C@H](NC(=O)[C@@H]5CCCO5)c5ccccc5)[nH]4)cc3)cc2)n[nH]1)c1ccccc1)[C@@H]1CCCO1` [Compound 214], the EC50 was less than 1 nM.

In the case of `CN(C)[C@@H](C(=O)N1CCC[C@H]1c1ncc(-c2ccc(C#Cc3ccc(-c4cnc([C@@H]5CCCN5C(=O)[C@H](NC(=O)C5CC5)c5ccccc5)[nH]4)cc3)cc2)[nH]1)c1ccccc1` [Compound 215], the EC50 is less than 1 nM.

Regarding `CN1CCC[C@@H]1C(=O)N[C@@H](C(=O)N1CCC[C@H]1c1ncc(-c2ccc(C#Cc3ccc(-c4cnc([C@@H]5CCCN5C(=O)[C@H](NC(=O)C5CC5)c5ccccc5)[nH]4)cc3)cc2)[nH]1)c1ccccc1` [Compound 216], the EC50 is less than 1 nM.

On to `O=C(N[C@@H](C(=O)N1CCC[C@H]1c1ncc(-c2ccc(C#Cc3ccc(-c4cnc([C@@H]5CCCN5C(=O)[C@@H](c5ccccc5)N5CCCC5)[nH]4)cc3)cc2)[nH]1)c1ccccc1)C1CC1` [Compound 217], for which the EC50 is less than 1 nM.

For `COC(=O)N[C@@H](C(=O)N1CCC[C@H]1c1ncc(-c2ccc(C#Cc3ccc(-c4cnc([C@@H]5CCCN5C(=O)[C@H](NC(=O)C5CC5)c5ccccc5)[nH]4)cc3)cc2)[nH]1)c1ccccc1` [Compound 218], the EC50 was less than 1 nM.

Regarding `COC(=O)N[C@@H](C(=O)N1CCC[C@H]1c1cc(-c2ccc(C#Cc3ccc(-c4cnc([C@@H]5CCCN5C(=O)[C@H](NC(=O)OC)c5ccccc5)[nH]4)cc3)cc2)n[nH]1)c1ccccc1` [Compound 219], the EC50 was less than 1 nM.

Turning to `O=C(N[C@@H](C(=O)N1CCC[C@H]1c1cc(-c2ccc(C#Cc3ccc(-c4cnc([C@@H]5CCCN5C(=O)[C@H](NC(=O)N5CCOCC5)c5ccccc5)[nH]4)cc3)cc2)n[nH]1)c1ccccc1)N1CCOCC1` [Compound 220], the EC50 is less than 1 nM.

Take `CN(C)C(=O)N[C@@H](C(=O)N1CCC[C@H]1c1cc(-c2ccc(C#Cc3ccc(-c4cnc([C@@H]5CCCN5C(=O)[C@H](NC(=O)N(C)C)c5ccccc5)[nH]4)cc3)cc2)n[nH]1)c1ccccc1` [Compound 221]: the EC50 was less than 1 nM.

Turning to `O=C(Cc1cccnc1)N[C@@H](C(=O)N1CCC[C@H]1c1cc(-c2ccc(C#Cc3ccc(-c4cnc([C@@H]5CCCN5C(=O)[C@H](NC(=O)Cc5cccnc5)c5ccccc5)[nH]4)cc3)cc2)n[nH]1)c1ccccc1` [Compound 222], the EC50 was less than 1 nM.

For the compound `COC(=O)N[C@@H](C(=O)N1CCC[C@H]1c1ncc(-c2ccc(C#Cc3ccc(-c4cnc([C@@H]5CCCN5C(=O)[C@H](NC(=O)N5CCOCC5)c5ccccc5)[nH]4)cc3)cc2)[nH]1)c1ccccc1` [Compound 224], the EC50 was less than 1 nM.

For the compound `COC(=O)N[C@@H](C(=O)N1CCC[C@H]1c1ncc(-c2ccc(C#Cc3ccc(-c4cnc([C@@H]5CCCN5C(=O)[C@H](NS(C)(=O)=O)c5ccccc5)[nH]4)cc3)cc2)[nH]1)c1ccccc1` [Compound 225], the EC50 is less than 1 nM.

With `CS(=O)(=O)N[C@@H](C(=O)N1CCC[C@H]1c1ncc(-c2ccc(C#Cc3ccc(-c4cnc([C@@H]5CCCN5C(=O)[C@H](NS(C)(=O)=O)c5ccccc5)[nH]4)cc3)cc2)[nH]1)c1ccccc1` [Compound 226], the EC50 was less than 1 nM.

On to `CC(C)OC(=O)N[C@@H](C(=O)N1CCC[C@H]1c1ncc(-c2ccc(C#Cc3ccc(-c4cnc([C@@H]5CCCN5C(=O)[C@H](NC(=O)OC(C)C)c5ccccc5)[nH]4)cc3)cc2)[nH]1)c1ccccc1` [Compound 227], for which the EC50 is less than 1 nM.

Consider `CN(C)[C@@H](C(=O)N1CCC[C@H]1c1ncc(-c2ccc(C#Cc3ccc(-c4cnc([C@@H]5CCCN5C(=O)[C@H](NS(C)(=O)=O)c5ccccc5)[nH]4)cc3)cc2)[nH]1)c1ccccc1` [Compound 228], for which the EC50 is less than 1 nM.

For `CCN(CC)[C@@H](C(=O)N1CCC[C@H]1c1ncc(-c2ccc(C#Cc3ccc(-c4cnc([C@@H]5CCCN5C(=O)[C@H](NS(C)(=O)=O)c5ccccc5)[nH]4)cc3)cc2)[nH]1)c1ccccc1` [Compound 229], the EC50 is less than 1 nM.

As to `CS(=O)(=O)N[C@@H](C(=O)N1CCC[C@H]1c1ncc(-c2ccc(C#Cc3ccc(-c4cnc([C@@H]5CCCN5C(=O)[C@@H](c5ccccc5)N5CCCC5)[nH]4)cc3)cc2)[nH]1)c1ccccc1` [Compound 230], the EC50 is less than 1 nM.

For `CS(=O)(=O)N[C@@H](C(=O)N1CCC[C@H]1c1ncc(-c2ccc(C#Cc3ccc(-c4cnc([C@@H]5CCCN5C(=O)[C@@H](c5ccccc5)N5CCCCC5)[nH]4)cc3)cc2)[nH]1)c1ccccc1` [Compound 231], the EC50 was less than 1 nM.

`CS(=O)(=O)N[C@@H](C(=O)N1CCC[C@H]1c1ncc(-c2ccc(C#Cc3ccc(-c4cnc([C@@H]5CCCN5C(=O)[C@@H](c5ccccc5)N5CCOCC5)[nH]4)cc3)cc2)[nH]1)c1ccccc1` [Compound 232]: the EC50 was less than 1 nM.

On to `COC(=O)N[C@@H](C(=O)N1CCC[C@H]1c1ncc(-c2ccc(C#Cc3ccc(C(=O)NC[C@@H]4CCCN4C(=O)[C@@H](c4ccccc4)N4CCCCC4)cc3)cc2)[nH]1)c1ccccc1` [Compound 233], for which the EC50 was less than 1 nM.

In the case of `COC(=O)N[C@@H](C(=O)N1CCC[C@H]1c1ncc(-c2ccc(C#Cc3ccc(C(=O)NC[C@@H]4CCCN4C(=O)[C@@H](c4ccccc4)N(C)C)cc3)cc2)[nH]1)c1ccccc1` [Compound 234], the EC50 was less than 1 nM.

Take `COC(=O)N[C@@H](C(=O)N1CCC[C@H]1c1ncc(-c2ccc(C#Cc3ccc(C(=O)NC[C@@H]4CCCN4C(=O)[C@H](NC(=O)N4CCOCC4)c4ccccc4)cc3)cc2)[nH]1)c1ccccc1` [Compound 235]: the EC50 is less than 1 nM.
